Literature values, collected in patent publication US11911514B2, “Extended-release pharmaceutical composition containing lacosamide” (WHAN IN Pharmaceutical Company, priority 2018, dated 2024).

Test system: patients with epilepsy
Details: taking 400 mg

## COC[C@@H](NC(C)=O)C(=O)NCc1ccccc1 [lacosamide]
  Number of patients with seizures reduced by more than 50%: 38-49%
